The assay deals with T1, human TLR9 (Homo sapiens, UniProt Q9NR96).
T1 sequence (Q9NR96 26-1032): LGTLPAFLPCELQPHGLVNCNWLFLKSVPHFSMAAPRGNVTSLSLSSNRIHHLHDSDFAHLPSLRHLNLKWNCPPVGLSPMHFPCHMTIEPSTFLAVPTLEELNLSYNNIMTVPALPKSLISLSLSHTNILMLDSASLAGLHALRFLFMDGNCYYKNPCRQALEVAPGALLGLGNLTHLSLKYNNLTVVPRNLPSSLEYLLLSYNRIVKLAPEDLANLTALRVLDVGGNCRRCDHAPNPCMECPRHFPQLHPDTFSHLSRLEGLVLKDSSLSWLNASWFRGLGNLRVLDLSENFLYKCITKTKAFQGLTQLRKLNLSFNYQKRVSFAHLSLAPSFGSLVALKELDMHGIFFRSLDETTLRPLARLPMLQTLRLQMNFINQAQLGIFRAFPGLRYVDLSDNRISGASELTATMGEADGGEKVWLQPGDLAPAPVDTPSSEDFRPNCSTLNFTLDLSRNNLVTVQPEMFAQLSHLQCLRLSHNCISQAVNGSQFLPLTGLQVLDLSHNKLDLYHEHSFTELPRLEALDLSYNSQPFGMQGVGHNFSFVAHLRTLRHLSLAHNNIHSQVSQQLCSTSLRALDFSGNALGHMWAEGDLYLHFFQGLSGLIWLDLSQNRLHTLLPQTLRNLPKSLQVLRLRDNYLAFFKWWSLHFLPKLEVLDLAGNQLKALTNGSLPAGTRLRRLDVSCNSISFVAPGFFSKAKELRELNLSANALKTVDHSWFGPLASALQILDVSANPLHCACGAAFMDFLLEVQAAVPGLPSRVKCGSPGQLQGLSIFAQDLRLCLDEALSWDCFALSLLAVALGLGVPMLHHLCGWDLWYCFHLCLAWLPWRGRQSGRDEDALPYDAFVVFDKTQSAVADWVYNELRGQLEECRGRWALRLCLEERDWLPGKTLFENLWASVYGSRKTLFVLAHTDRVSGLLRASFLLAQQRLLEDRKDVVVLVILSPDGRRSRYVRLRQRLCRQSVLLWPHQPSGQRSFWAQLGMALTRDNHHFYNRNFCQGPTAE
Briefly: HEK293-Blue-hTLR-9 cells assay. Particulars: HEK293-Blue-hTLR9 cells, SEAP reporter, ODN2006 stimulation, 20 hrs. Type of assay: cell-based. The source says: HEK293-Blue-hTLR-9 Cells Assay:
A stable HEK293-Blue-hTLR-9 cell line was purchased from InvivoGen (Cat. #: hkb-htlh9, San Diego, Calif., USA). These cells were originally designed for studying the stimulation of human TLR9 by monitoring the activation of NF-κB. A SEAP (secreted embryonic alkaline phosphatase) reporter gene was placed under the control of the IFN-β minimal promoter fused to five NF-κB and AP-1-binding sites. The SEAP was induced by activating NF-κB and AP-1 via stimulating HEK-Blue hTLR9 cells with TLR9 ligands. Therefore the reporter expression was declined by TLR9 antagonist under the stimulation of a ligand, such as ODN2006 (Cat. #: tlrl-2006-1, Invivogen, San Diego, Calif., USA), for incubation of 20 hrs. The cell culture supernatant SEAP reporter activity was determined using QUANTI-Blue™ kit (Cat. #: rep-qb1, Invivogen, San Diego, Calif., USA) at a wavelength of 640 nm, a detection medium that turns purple or blue in the presence of alkaline phosphatase.
HEK293-Blue-hTLR9 cells were incubated at a density of 250,000-450,000 cells/mL in a volume of 170 μL in a 96-well plate in Dulbecco's Modified Eagle's medium (DMEM) containing 4.5 g/L glucose, 50 U/mL penicillin, […], […], 2 mM L-glutamine, 10% (v/v) heat-inactivated fetal bovine serum with addition of 20 sL test compound in a serial dilution in the presence of final DMSO at 1% and 10 sL of 20 uM ODN2006 in above DMEM, perform incubation under 37° C. in a CO2 incubator for 20 hrs. Then 20 sL of the supernatant from each well was incubated with 180 μL Quanti-blue substrate solution at 37° C. for 2 hrs and the absorbance was read at 620-655 nm using a spectrophotometer. The signalling pathway that TLR9 activation leads to downstream NF-x3B activation has been widely accepted, and therefore similar reporter assay was modified for evaluating TLR9 antagonist.

As for `CN1CCC(NC(=O)C2CN(c3ccc(C#N)c4ncccc34)CC2C(F)(F)F)CC1` (centres unmarked) [Example 18, 1-(8-Cyano-5-quinolyl)-N-(1-methyl-4-piperidyl)-4-(trifluoromethyl)pyrrolidine-3-carboxamide], the IC50 stood at 10.8 µM.

Regarding `CN1CCC(NC(=O)[C@@H]2CN(c3ccc(C#N)c4ncccc34)C[C@H]2C(F)F)CC1` (relative stereo) [Example 40, Trans-1-(8-cyano-5-quinolyl)-4-(difluoromethyl)-N-(1-methyl-4-piperidyl)pyrrolidine-3-carboxamide], half-maximal inhibition (IC50) required 6.9 µM.

`N[C@H]1CC[C@H](NC(=O)C2CN(c3ccc(C(F)(F)F)c4nccnc34)CC23CC3)CC1` (some centres unmarked) [Example 24, N-(4-aminocyclohexyl)-5-[8-(trifluoromethyl)quinoxalin-5-yl]-5-azaspiro[2.4]heptane-7-carboxamide]: the IC50 turned out to be 27.8 µM.

Turning to `CN1CCC(NC(=O)C2CN(c3ccc(C(F)(F)F)c4nccnc34)CC23CC3)CC1` (centres unmarked) [Example 11, N-(1-methyl-4-piperidyl)-5-[8-(trifluoromethyl)quinoxalin-5-yl]-5-azaspiro[2.4]heptane-7-carboxamide], the IC50 came to 1 µM.

On to `CN1CCC(NC(=O)[C@H]2CN(c3ccc(C(F)(F)F)c4nccnc34)C[C@@H]2C(F)(F)F)CC1` [Example 2, (3R,4R)—N-(1-methyl-4-piperidyl)-4-(trifluoromethyl)-1-[8-(trifluoromethyl)quinoxalin-5-yl]pyrrolidine-3-carboxamide], for which the IC50 was 5.5 µM.

With `CN1CCC(NC(=O)[C@H]2CN(c3ccc(C#N)c4nccnc34)C[C@@H]2C(F)(F)F)CC1` [Example 1, (3R,4R)-1-(8-cyanoquinoxalin-5-yl)-N-(1-methyl-4-piperidyl)-4-(trifluoromethyl) pyrrolidine-3-carboxamide], the IC50 was determined as 5.2 µM.

On to `N#Cc1ccc(N2CC(C(=O)NCC3CNCCO3)C3(CC3)C2)c2nccnc12` (centres unmarked) [Example 13, 5-(8-Cyanoquinoxalin-5-yl)-N-(morpholin-2-ylmethyl)-5-azaspiro[2.4]heptane-7-carboxamide], for which the midpoint of inhibition, the IC50, lay at 2.1 µM.

For `C[C@@H]1CN(c2ccc(C#N)c3ncccc23)C[C@H]1C(=O)NC1CCN(C)CC1` (relative stereo) [Example 28], the IC50 came to 6.4 µM. This IC50 lies about 3-fold higher than the previous one.

`O=C(NC1C2CCCC1CNC2)C1CN(c2ccc(C(F)(F)F)c3nccnc23)CC12CC2` (centres unmarked) [Example 8, N-(3-azabicyclo[3.3.1]nonan-9-yl)-5-[8-(trifluoromethyl)quinoxalin-5-yl]-5-azaspiro[2.4]heptane-7-carboxamide] had an IC50 of 8.3 µM.

In the case of `N#Cc1ccc(N2CC(C(=O)NC3CCCNCC3)C(C(F)(F)F)C2)c2cccnc12` (single isomer, unassigned) [Example 30A, N-(azepan-4-yl)-1-(8-cyano-5-quinolyl)-4-(trifluoromethyl)pyrrolidine-3-carboxamide], inhibition was half-maximal at 17.5 µM (IC50).

In the case of `CN1CCC(NC(=O)C2CN(c3ccc(C#N)c4nccnc34)CC23CC3)CC1` (single isomer, unassigned) [Example 7B, 5-(8-Cyanoquinoxalin-5-yl)-N-(1-methyl-4-piperidyl)-5-azaspiro[2.4]heptane-7-carboxamide], half-maximal inhibition (IC50) required 3.3 µM.

Turning to `NC1CC(CNC(=O)C2CN(c3ccc(C(F)(F)F)c4nccnc34)CC23CC3)C1` (centres unmarked) [Example 31, N-[(3-aminocyclobutyl)methyl]-5-[8-(trifluoromethyl)quinoxalin-5-yl]-5-azaspiro[2.4]heptane-7-carboxamide], the IC50 turned out to be 9.3 µM. This IC50 is about 2.8-fold higher than that of the compound before.

On to `C[C@H]1CN(c2ccc(C#N)n3nccc23)C[C@@H]1C(=O)NC1CCN(C)CC1` [Example 44, (3R,4R)-1-(7-cyanopyrazolo[1,5-a]pyridin-4-yl)-4-methyl-N-(1-methyl-4 piperidyl)pyrrolidine-3-carboxamide], for which the IC50 is 9.1 µM.

On to `C[C@@H]1CN(c2ccc(C#N)c3ncccc23)C[C@H]1C(=O)NC1CCCNCC1` (single isomer, unassigned) [Example 52B, Trans-N-(azepan-4-yl)-1-(8-cyano-5-quinolyl)-4-methyl-pyrrolidine-3-carboxamide], for which the IC50 is 11.6 µM.

The values above are taken from patent US20210323977A1, “PYRROLIDINYL AMIDE COMPOUNDS FOR THE TREATMENT OF AUTOIMMUNE DISEASE” (Hoffmann-La Roche Inc., priority 2018, published 2021).
